Literature values as cited in publication PMC11997881, “Comprehensive Characterization of Bruton’s Tyrosine Kinase Inhibitor Specificity, Potency, and Biological Effects: Insights into Covalent and Noncovalent Mechanistic Signatures” (ACS Pharmacology & Translational Science, 2025).
pIC50, pKd: −log10 of the molar value.

How the values were obtained:
[1] = tested on: BTK C481S; settings: literature values; read-out: average published IC50 for BTK C481S; cited from earlier work
[2] = biological target: BTK C481S; settings: average of literature values; read-out: average published Kd for BTK C481S; cited from earlier work

Structure (SMILES) | pIC50 [1] | pKd [2]
O=C(c1ccc(Oc2ccccc2)cc1Cl)c1c[nH]c2ncnc(N[C@@H]3CC[C@@H](CO)OC3)c12 [Nemtabrutinib] | 9.41 | 
COc1ccc(F)cc1C(=O)NCc1ccc(-c2nn([C@@H](C)C(F)(F)F)c(N)c2C(N)=O)cc1 [Pirtobrutinib] |  | 8.59
